Our source for the Kd values is article PMC3792137, “NMK-TD-100, a Novel Microtubule Modulating Agent, Blocks Mitosis and Induces Apoptosis in HeLa Cells by Binding to Tubulin” (PLoS ONE, 2013).

The assay addresses T1, tubulin (alpha/beta heterodimer).
T1 construct: tubulin purified from goat brain; with alpha-tubulin/beta-tubulin heterodimer
The assay is described as follows: Ligand fluorescence enhancement titration (Scatchard, Job plot […]); tryptophan quenching gave Kd […]; polymerization IC50 […]. The format is binding, Capra hircus.

Take `COc1cc(-c2nnc(-c3c[nH]c4ccccc34)s2)cc(OC)c1OC` [NMK-TD-100]: the Kd stood at 1.26 ± 0.32 µM.

By Kd is commonly meant the concentration at which binding is half-saturated.
